Reference: BindingDB's records for doi:10.1016/j.ejmech.2019.04.066 (Shanghai Ocean University, 2019)

Assay: Inhibition of ICAM-1 in human A549 cells after 1 hr in presence of IL-1beta

For C[C@@H]1C(=O)O[C@H]2[C@H]1CC[C@@]1(C)C[C@@H](Br)C(=O)[C@@H](C)[C@H]21, which IC50 is on record?
The IC50 was 5.9 µM.
